Source: patent US20250000786A1, “SENOTHERAPY COMPOSITION CONTAINING CAMELLIA SINENSIS EXTRACT” (AMOREPACIFIC CORPORATION, priority 2023, published 2025)

Assays:
young human fibroblasts = assay: Cell death by CCK-8 in young fibroblasts; type: cell-based; conditions: concentration of 50 ppm or higher, 72 hours
Method: Human fibroblasts were cultured in a 6-well plate culture medium. Senescent cells were prepared by inducing senescence by culturing the fibroblasts in DMEM (containing 10% FBS) medium containing doxorubicin (100 ng/ml) and insulin-like growth factor 1 (IGF-1) (100 ng/ml) for 4 days. Then, the same medium was treated with a positive control material (ABT737, 1-10 uM) and the tea tree root extract (50-150 ppm) and cultured for 72 hours. The ABT737 is a Bcl-2 inhibitor and a representative senolytic. Young cells were treated with experimental materials in DMEM medium without inducing senescence and cultured for 72 hours.
In order to confirm the senolytic efficacy of the treatment with the tea tree root extract, the medium was replaced with a medium diluted 1/100 with Cell counting kit-8 (CCK-8, dojindo), cultured for 1 hour, and then the absorbance was measured at 540 nm.
Human fibroblasts were cultured in a 6-well plate culture medium. […]
In order to confirm the senolytic efficacy of the material treated with the tea tree root extract, the medium was replaced with a medium diluted 1/100 with Cell counting kit-8 (CCK-8, dojindo), cultured for 1 hour, and then the absorbance was measured at 540 nm.

[1] = test system: senescent human fibroblasts; assay: Cell death by CCK-8 in senescence-induced fibroblasts; type: cell-based; conditions: 72 hours
Method: Human fibroblasts were cultured in a 6-well plate culture medium. Senescent cells were prepared by inducing senescence by culturing the fibroblasts in DMEM (containing 10% FBS) medium containing doxorubicin (100 ng/ml) and insulin-like growth factor 1 (IGF-1) (100 ng/ml) for 4 days. Then, the same medium was treated with a positive control material (ABT737, 1-10 uM) and the tea tree root extract (50-150 ppm) and cultured for 72 hours. The ABT737 is a Bcl-2 inhibitor and a representative senolytic. Young cells were treated with experimental materials in DMEM medium without inducing senescence and cultured for 72 hours. In order to confirm the senolytic efficacy of the treatment with the tea tree root extract, the medium was replaced with a medium diluted 1/100 with Cell counting kit-8 (CCK-8, dojindo), cultured for 1 hour, and then the absorbance was measured at 540 nm. Human fibroblasts were cultured in a 6-well plate culture medium. […] In order to confirm the senolytic efficacy of the material treated with the tea tree root extract, the medium was replaced with a medium diluted 1/100 with Cell counting kit-8 (CCK-8, dojindo), cultured for 1 hour, and then the absorbance was measured at 540 nm.

O=C(O[C@@H]1Cc2c(O)cc(O)cc2O[C@@H]1c1cc(O)c(O)c(O)c1)c1cc(O)c(O)c(O)c1 [EGCG, epigallocatechin gallate]
cytotoxicity on young cells (young human fibroblasts): showed cytotoxicity | killing senescent cells in fibroblasts [1]: no effect
